Results taken from patent US7220743B2, “Heterocyclic CB1 receptor antagonists” (Hoffmann-La Roche Inc., priority 2005, dated 2007).

Biological target: T1, cannabinoid CB1 receptors (Homo sapiens, UniProt P21554)
T1 construct: expressed in transfected cells; host or cells: HEK cells, transient, Semliki Forest Virus system; membrane preparation
Test: Affinity for cannabinoid CB1 receptors, [3H]-CP-55,940 radioligand binding on HEK cell membranes
Details: CB1 receptor affinity, [3H]-CP-55,940, HEK membranes
Method: The affinity of the compounds of the invention for cannabinoid CB1 receptors was determined using membrane preparations of human embryonic kidney (HEK) cells in which the human cannabis […] receptor is transiently transfected using the Semliki Forest Virus system in conjunction with [3H]-CP-55,940 as radioligand. After incubation of a freshly prepared cell membrane preparation with the [3H]-ligand, with or without addition of compounds of the invention, separation of bound and free ligand was performed by filtration over glassfiber filters. Radioactivity on the filter was measured by liquid scintillation counting.

T1 sequence (P21554 whole entry): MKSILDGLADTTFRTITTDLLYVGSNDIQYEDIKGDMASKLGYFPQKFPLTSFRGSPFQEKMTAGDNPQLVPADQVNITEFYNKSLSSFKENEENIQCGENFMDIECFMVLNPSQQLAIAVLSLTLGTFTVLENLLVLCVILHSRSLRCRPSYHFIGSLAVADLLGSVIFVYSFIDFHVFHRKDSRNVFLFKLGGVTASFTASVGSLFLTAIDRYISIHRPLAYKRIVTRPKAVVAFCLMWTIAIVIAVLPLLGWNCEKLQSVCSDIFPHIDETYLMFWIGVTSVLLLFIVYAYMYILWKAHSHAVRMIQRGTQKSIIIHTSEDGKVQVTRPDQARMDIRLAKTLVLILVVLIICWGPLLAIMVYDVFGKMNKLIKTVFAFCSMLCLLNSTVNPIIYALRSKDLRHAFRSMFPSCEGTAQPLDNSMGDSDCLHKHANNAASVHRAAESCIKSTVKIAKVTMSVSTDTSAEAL

SMILES: O=C(c1cc2c(cc1F)OC1(O2)c2ccccc2C=Cc2ccccc21)N1CCOCC1 [Example 3, 4-[(6-fluoro-spiro[1,3-benzodioxole-2,5′-[5H]dibenzo[a,d]cyclohepten]-5-yl)carbonyl]-morpholine]
- IC50: 6 nM
